Data: publication PMC11938010, “Positive Charge in an Antimalarial Compound Unlocks Broad-Spectrum Antibacterial Activity” (JACS Au, 2025)
Converted amounts (≈) assume the structure as drawn. Read-outs that look alike come from different tables or passages of the source.

How the values were obtained:
[1] = system: Streptococcus pneumoniae (DSM20566); assay: In vitro antibacterial activity (MIC), S. pneumoniae; assay type: cell-based; conditions: Streptococcus pneumoniae, DSM20566, read-out: Sp MIC95
in vitro = conditions: human
[2] = system: Staphylococcus aureus ssp. Aureus; assay: In vitro antibacterial activity (MIC), S. aureus; assay type: cell-based; conditions: Staphylococcus aureus, read-out: Sa MIC95
[3] = system: Plasmodium falciparum NF54; assay: P. falciparum in vitro drug sensitivity assay on asexual blood stage parasites ([3H]-hypoxanthine incorporation); assay type: cell-based; conditions: for IC50: read-out: PfNF54 IC50
Escherichia coli ∆tolC = assay: microbe, parasite or virus in culture; assay type: cell-based; conditions: for MIC / inhibition at 50 µM: Escherichia coli; for inhibition at 50 µM: read-out: Ec∆tolC inh. at 50 µM (%)
[4] = system: Mycobacterium tuberculosis (Mtb) strain H37Rv; assay: microbe, parasite or virus in culture; assay type: cell-based; conditions: 168 h, 7 days, footnote b: not active at maximum solubility, read-out: MtbH37Rv MIC90
E. coli K12 = assay: In vitro antibacterial activity (growth inhibition, OD600), E. coli wild-type; assay type: cell-based; conditions: Escherichia coli
Acinetobacter baumannii = assay: In vitro antibacterial activity (growth inhibition, OD600), A. baumannii; assay type: cell-based
[5] = system: Pseudomonas aeruginosa PA14; assay: In vitro antibacterial activity (growth inhibition, OD600), P. aeruginosa; assay type: cell-based
[6] = Table S2, with standard deviation
[7] = Plasmodium falciparum, NF54, Table 1 and main text
[8] = K12, 50 µM, Table S1, with standard deviation, read-out: EcK12 inh. at 50 µM (%)
[9] = 50 μM compound, Table 1 and main text, read-out: Ab inh. at 50 μM
[10] = 50 µM, Table S1, with standard deviation, read-out: Ab inh. at 50 µM (%)
[11] = K12, 50 μM compound, Table 1 and main text, read-out: EcK12 inh. at 50 μM
[12] = PA14, 50 μM compound, Table 1 and main text, read-out: PA14 inh. at 50 μM
[13] = K12, read-out: EcK12 inh. at 50 μM, 50 μM compound, Table 1 and main text
[14] = PA14, 50 µM, Table S1, with standard deviation, read-out: PA14 inh. at 50 µM (%)

| SMILES | MIC ([1]; Table 1 and main text) [µM] | MIC [1, 6] [µM] | CC50 (in vitro; HepG2 CC50, 48 h, MTT) [µM] | MIC ([2]; Table 1 and main text) [µM] | MIC [2, 6] [µM] | IC50 [3, 7] [µM] | MIC (Escherichia coli ∆tolC; read-out: EcΔtolC MIC95) [µM] | inhibition at 50 µM (Escherichia coli ∆tolC) [%] | MIC90 [4] [µM] | inhibition at 50 µM [5, 12] [%] | MIC (Escherichia coli ∆tolC; read-out: Ec∆tolC MIC95 (µM)) [µM] | other results |
| --- | --- | --- | --- | --- | --- | --- | --- | --- | --- | --- | --- | --- |
| Cc1ccc(NC(=O)c2cc(-c3cc(Cl)ccc3O)[nH]n2)cc1 [Compound 1d] | > 50 | > 50 | > 50 | > 50 | > 50 | > 2 | > 50 | < 10 | – | – | – | IC50 ([3]; Table 1 and main text): 2.4 µM |
| O=C(c1cc(-c2cc(Cl)ccc2O)[nH]n1)N1CCOCC1 [Compound 1e] | > 50 | > 50 | > 50 | > 50 | > 50 | > 5 | > 50 | 23 ± 3 | > 16 | – | – | PfNF54 IC50 ([3]; Table 1 and main text): inactive |
| CC(C)(C)OC(=O)N1CCN(Cc2cccc(NC(=O)c3cc(-c4cc(Cl)ccc4O)[nH]n3)c2)CC1 [Compound 3B] | > 50 | > 50 | 25 | > 50 | > 50 | 1 | > 50 | – | – | – | – | inhibition at 50 µM (E. coli K12; [8]): < 10% |
| O=C(Nc1ccc(CN2CCNCC2)cc1)c1cc(-c2cc(Cl)ccc2O)[nH]n1 [Compound 4A] | 40 (≈ 16.5 µg/mL) | 40 ± 7 (≈ 16.5 µg/mL) | 13 | > 50 | > 50 | 0.27 | 40 (≈ 16.5 µg/mL) | – | 64 (≈ 26.4 µg/mL) | 62 | 40 ± 8 (≈ 16.5 µg/mL) | inhibition at 50 µM (Acinetobacter baumannii; [9]): 24%; inhibition at 50 µM (Acinetobacter baumannii; [10]): 24.2 ± 7.7%; inhibition at 50 µM (E. coli K12; [11]): 34% |
| CC(C)(C)OC(=O)N1CCN(Cc2ccc(NC(=O)c3cc(-c4cc(Cl)ccc4O)[nH]n3)cc2)CC1 [Compound 4B] | > 50 | > 50 | 7 | > 50 | > 50 | 0.2 | > 50 | – | – | – | – | CC50 (in vitro; HepG2 CC50 (µM), Table S2, with standard deviation): 7.4 ± 0.7 µM; inhibition at 50 µM (E. coli K12; [8]): 17 ± 13% |
| CC(C)(C)OC(=O)N1CCN(c2cccc(NC(=O)c3cc(-c4cc(Cl)ccc4O)[nH]n3)c2)CC1 [Compound 5B] | > 50 | > 50 | > 50 | > 50 | > 50 | 0.9 | > 50 | 19 ± 14 | – | – | – | inhibition at 50 µM (E. coli K12; [8]): < 10% |
| N=C(N)N1CCN(c2cccc(NC(=O)c3cc(-c4cc(Cl)ccc4O)[nH]n3)c2)CC1 [Compound 5G] | 48 (≈ 21.1 µg/mL) | 48 ± 1 (≈ 21.1 µg/mL) | > 50 | 23.1 (≈ 10.2 µg/mL) | 23.1 ± 0.5 (≈ 10.2 µg/mL) | 0.93 | 11 (≈ 4.84 µg/mL) | – | 64 (≈ 28.2 µg/mL) | 31 | 11 ± 2 (≈ 4.84 µg/mL) | inhibition at 50 µM (Acinetobacter baumannii; [9]): < 10%; inhibition at 50 µM (E. coli K12; [11]): 32% |
| CC(C)(C)OC(=O)N1CCN(c2ccc(NC(=O)c3cc(-c4cc(Cl)ccc4O)[nH]n3)cc2)CC1 [Compound 6B] | > 50 | > 50 | > 50 | > 50 | > 50 | 1.61 | > 50 | < 10 | – | – | – | – |
| N=C(N)N1CCN(c2ccc(NC(=O)c3cc(-c4cc(Cl)ccc4O)[nH]n3)cc2)CC1 [Compound 6G] | 25 (≈ 11 µg/mL) | 25 ± 2 (≈ 11 µg/mL) | > 50 | 26 (≈ 11.4 µg/mL) | 26 ± 2 (≈ 11.4 µg/mL) | 0.44 | 9 (≈ 3.96 µg/mL) | – | 64 (≈ 28.2 µg/mL) | 55 | 9 ± 3 (≈ 3.96 µg/mL) | inhibition at 50 µM (Acinetobacter baumannii; [9]): 32%; inhibition at 50 µM (E. coli K12; [13]): ≥ 45% |
| CC(C)(C)OC(=O)NCc1cccc(NC(=O)c2cc(-c3cc(Cl)ccc3O)[nH]n2)c1 [Compound 7B] | > 50 | > 50 | > 50 | > 50 | > 50 | 1.1 | > 50 | < 10 | – | – | – | inhibition at 50 µM (E. coli K12; [8]): < 10% |
| O=C(Nc1cccc(CNC2=NCCN2)c1)c1cc(-c2cc(Cl)ccc2O)[nH]n1 [Compound 7C] | 48.2 (≈ 19.8 µg/mL) | 48.2 ± 0.8 (≈ 19.8 µg/mL) | > 50 | 22.3 (≈ 9.16 µg/mL) | 22.3 ± 0.6 (≈ 9.16 µg/mL) | 0.39 | 13 (≈ 5.34 µg/mL) | – | 32 (≈ 13.1 µg/mL) | 41 | 13 ± 3 (≈ 5.34 µg/mL) | inhibition at 50 µM (Acinetobacter baumannii; [9]): 33%; inhibition at 50 µM (E. coli K12; [11]): 29%; inhibition at 50 µM (E. coli K12; [8]): 29.4 ± 0.6% |
| CC(C)(C)OC(=O)N1CCN=C1NCc1cccc(NC(=O)c2cc(-c3cc(Cl)ccc3O)[nH]n2)c1 [Compound 7D] | 31 (≈ 15.8 µg/mL) | 31 ± 11 (≈ 15.8 µg/mL) | 19 | 24 (≈ 12.3 µg/mL) | 24 (≈ 12.3 µg/mL) | 0.36 | 14 (≈ 7.15 µg/mL) | – | 64 (≈ 32.7 µg/mL) | ≥ 45 | 14 ± 4 (≈ 7.15 µg/mL) | inhibition at 50 µM (E. coli K12; [13]): ≥ 45%; inhibition at 50 µM [5, 14]: 54.8 ± 0.8% |
| N=C(N)NCc1cccc(NC(=O)c2cc(-c3cc(Cl)ccc3O)[nH]n2)c1 [Compound 7G] | 49 (≈ 18.9 µg/mL) | 49 (≈ 18.9 µg/mL) | > 50 | 22 (≈ 8.47 µg/mL) | 22 ± 2 (≈ 8.47 µg/mL) | 0.21 | 13 (≈ 5 µg/mL) | – | 64 (≈ 24.6 µg/mL) | 56 | 13 ± 3 (≈ 5 µg/mL) | inhibition at 50 µM (Acinetobacter baumannii; [9]): 24%; inhibition at 50 µM (E. coli K12; [13]): ≥ 45% |
| CC(C)(C)OC(=O)N1CCN=C1NCc1ccc(NC(=O)c2cc(-c3cc(Cl)ccc3O)[nH]n2)cc1 [Compound 8D] | > 50 | > 50 | > 50 | > 50 | > 50 | – | > 50 | 18.5 ± 0.8 | > 64 | – | – | – |
| CC(C)(C)OC(=O)NCc1cc(NC(=O)c2cc(-c3cc(Cl)ccc3O)[nH]n2)cc(C(F)(F)F)c1 [Compound 9B, tert-Butyl (3-(5-(5-chloro-2-hydroxyphenyl)-1H-pyrazole-3-carboxamido)-5-(trifluoromethyl)benzyl)carbamate] | 30 (≈ 15.3 µg/mL) | 30 ± 5 (≈ 15.3 µg/mL) | 5 | > 50 | > 50 | 0.203 | > 50 | 48 ± 8 | > 64 | – | – | – |
| CC(C)(C)OC(=O)N1CCN=C1NCc1cc(NC(=O)c2cc(-c3cc(Cl)ccc3O)[nH]n2)cc(C(F)(F)F)c1 [Compound 9D] | 21 (≈ 12.2 µg/mL) | 21 ± 9 (≈ 12.2 µg/mL) | 14 | 12 (≈ 6.95 µg/mL) | 12 ± 3 (≈ 6.95 µg/mL) | 0.15 | 24 (≈ 13.9 µg/mL) | – | 16 (≈ 9.26 µg/mL) | 21 | 24 (≈ 13.9 µg/mL) | inhibition at 50 µM (Acinetobacter baumannii; [10]): 81.6 ± 0.6%; EcΔtolC MIC95 (Escherichia coli ∆tolC; Table 1 and main text): 24.0 µM |
| CC(C)(C)OC(=O)NCc1ccc(NC(=O)c2cc(-c3cc(Cl)ccc3O)[nH]n2)cc1C(F)(F)F [Compound 10B, tert-Butyl (4-(5-(5-chloro-2-hydroxyphenyl)-1H-pyrazole-3-carboxamido)-2-(trifluoromethyl)benzyl)carbamate] | > 50 | > 50 | > 50 | > 50 | > 50 | 0.19 | > 50 | < 10 | – | – | – | inhibition at 50 µM (Acinetobacter baumannii; [10]): < 10%; inhibition at 50 µM (E. coli K12; [8]): < 10% |
| O=C(Nc1ccc(C(F)(F)F)c(N2CCNCC2)c1)c1cc(-c2cc(Cl)ccc2O)[nH]n1 [Compound 13A, 5-(5-Chloro-2-hydroxyphenyl)-N-(3-(piperazin-1-yl)-4-(trifluoromethyl)phenyl)-1H-pyrazole-3-carboxamide] | 29 (≈ 13.5 µg/mL) | 29 ± 2 (≈ 13.5 µg/mL) | 8 | > 50 | > 50 | 0.16 | > 50 | 46 ± 5 | 32 (≈ 14.9 µg/mL) | – | – | inhibition at 50 µM (Acinetobacter baumannii; [10]): < 10%; inhibition at 50 µM [5, 14]: < 10% |
| CC(C)(C)OC(=O)N1CCN(c2cc(NC(=O)c3cc(-c4cc(Cl)ccc4O)[nH]n3)ccc2C(F)(F)F)CC1 [Compound 13B, tert-Butyl 4-(5-(5-(5-chloro-2-hydroxyphenyl)-1H-pyrazole-3-carboxamido)-2-(trifluoromethyl)phenyl)piperazine-1-carboxylate] | > 50 | – | 2.8 | > 50 | – | 0.342 | > 50 | < 10 | – | – | – | – |
| O=C(c1cc(-c2cc(Cl)ccc2O)[nH]n1)N1CCNCC1 [Compound 14A, (5-(5-Chloro-2-hydroxyphenyl)-1H-pyrazol-3-yl)(piperazin-1-yl)methanone] | > 50 | > 50 | > 50 | > 50 | > 50 | 3.3 | > 50 | 18 ± 4 | > 16 | – | – | PfNF54 IC50 ([3]; Table 1 and main text): inactive |
| N=C(N)N1CCN(C(=O)c2cc(-c3cc(Cl)ccc3O)[nH]n2)CC1 [Compound 14G] | > 50 | > 50 | > 50 | > 50 | > 50 | > 5 | > 50 | 18 ± 9 | > 64 | – | – | PfNF54 IC50 ([3]; Table 1 and main text): inactive |
